Earlier results in patent publication US20240226060A1, “TOPICAL LIPOSOME POLYPHENOL COMPOSITIONS FOR TREATING AND PREVENTING VARIOUS SKIN DISORDERS AND METHODS OF PREPARATION THEREOF” (PANAG PHARMA INC., priority 2021, published 2024).
Like-named read-outs stand apart in the source and are kept apart here.

Experiments:
[1] = simulated physiological conditions pH 7.4 and 37° C., within 24 hours
[2] = tested on: epidermolysis bullosa; conditions: CBD oil, 3 patients
[3] = tested on: CFA-induced arthritis
[4] = tested on: facial skin aging; conditions: 1% apigenin cream, twice daily, 2 and 4 weeks
[5] = not given; remark: listed apart in the source
[6] = tested on: melasma
[7] = 2% minoxidil in MLVs
[8] = tested on: facial acne vulgaris; conditions: for revised Leeds score at week 8: baseline 5.1
[9] = surfactant micelles, U.S. Pat. No. 10,709,748
[10] = twice daily 3 days, 4 hours after last dose
[11] = 1% EGCG, 8 weeks, vs baseline and vehicle

C=C(C)[C@@H]1CCC(C)=C[C@H]1c1c(O)cc(CCCCC)cc1O [CBD, cannabidiol]
encapsulation efficiency [9]: 86% | CBD loss [1]: 10% | patient-reported outcome [2]: faster wound healing, less blistering, and amelioration of pain | joint swelling and pain ([3]; 1% CBD gel on shaved back, 4 days): optimally reduced swelling and alleviated pain | joint swelling and pain ([3]; 10% CBD gel versus 1%): did not yield additional improvement | CFA-induced edema ([3]; lower doses (0.1, 0.5% CBD gel)): no effect

CCCCCc1cc(O)c2c(c1)OC(C)(C)[C@@H]1CCC(C)=C[C@@H]21 [THC, tetrahydrocannabinol]
encapsulation efficiency [9]: 92%

O=c1cc(-c2ccc(O)cc2)oc2cc(O)cc(O)c12 [apigenin]
dermal density, skin elasticity, length of fine wrinkles [4]: Significant improvements | skin moisture content, TEWL and skin texture [4]: significantly improved | solubility ([5]; ethanol): poor solubility | solubility ([5]; propylene glycol and polyethylene glycol 400): superior solubilities

Oc1ccc(O)cc1 [hydroquinone]
patients presenting with erythema, burning and scaling ([6]; 4% cream in melasma patients): 71% | MASI score reduction from baseline ([6]; 4% cream, after three months): 39%

Clc1ccc(COC(Cn2ccnc2)c2ccc(Cl)cc2Cl)c(Cl)c1 (stereo not drawn) [miconazole nitrate]
encapsulation efficiency (proliposome method with propylene glycol, El-Khordagui et al): 95.6%

Nc1cc(N2CCCCC2)nc(N)[n+]1[O-] [minoxidil]
drug in cumulative urine samples, liposome versus suspension & solution [7]: significant less drug | drug content in dermis, liposome versus suspension & solution [7, 10]: 4-5 fold | drug content in epidermis, liposome versus suspension & solution [7, 10]: 2-3 fold | drug content on skin surface, liposome versus suspension & solution [7, 10]: 3-4 fold

CC(=O)[C@H]1CC[C@H]2[C@@H]3CCC4=CC(=O)CC[C@]4(C)[C@H]3CC[C@]12C [progesterone]
encapsulation efficiency (EE) (DPPC/cholesterol MLVs, thin film hydration, U.S. Pat. No. 4,485,054): 77%

epigallocatechin 3-gallate [EGCG]
revised Leeds score at week 8 ([8]; 1% EGCG hydroalcoholic solution): 1.2 | mean inflammatory lesion count decrease [8, 11]: 89% | mean noninflammatory lesion count decrease [8, 11]: 79% | revised Leeds score at week 8 ([8]; 5% EGCG hydroalcoholic solution): 1.7

isoscutellarein
incorporation efficiency (liposomes, 9 parts egg PC to 2 parts flavonoid, Demetzos et al): 95%
